Results from ChEMBL document CHEMBL3621202, “Suppression of Hepatocellular Carcinoma by Inhibition of Overexpressed Ornithine Aminotransferase” (ACS Med Chem Lett, 2015).
Active and inactive are the calls of the source. No cut-off for these calls is given here.

Experiments:
Mus musculus [1] = experiment: Reduction in AFP secretion in Hep3B cells xenografted Balb/C mouse serum at 1 mg/kg, po administered 3 weeks after xenograft measured 14 days after treatment by ELISA (reference value: 29155 pg/ml); format: functional, Hep 3B2
Hep 3B2 [2] = experiment: Decrease in AFP secretion in human Hep3B cells at 50 ug/ml by ELISA; format: functional, cell-based
HepG2 [3] = experiment: Decrease in AFP secretion in human HepG2 cells at 50 ug/ml by ELISA; format: functional, cell-based
[4] = target: T1, Ornithine aminotransferase, mitochondrial (Homo sapiens, UniProt P04181); experiment: Inhibition of human recombinant OAT using 1 mM alpha-ketoglutarate as substrate
T1 sequence (P04181 whole entry): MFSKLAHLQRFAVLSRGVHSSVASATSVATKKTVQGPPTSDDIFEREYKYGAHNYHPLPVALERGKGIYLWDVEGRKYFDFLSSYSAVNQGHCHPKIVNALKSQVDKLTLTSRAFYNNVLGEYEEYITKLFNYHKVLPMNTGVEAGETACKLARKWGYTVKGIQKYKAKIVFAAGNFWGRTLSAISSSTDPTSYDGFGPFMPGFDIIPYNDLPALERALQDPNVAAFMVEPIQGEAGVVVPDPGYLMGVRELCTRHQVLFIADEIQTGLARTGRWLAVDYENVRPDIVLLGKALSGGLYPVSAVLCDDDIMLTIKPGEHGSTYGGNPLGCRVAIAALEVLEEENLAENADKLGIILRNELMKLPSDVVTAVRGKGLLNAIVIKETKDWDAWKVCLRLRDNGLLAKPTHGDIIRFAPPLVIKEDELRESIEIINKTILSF

Mus musculus [5] = experiment: Reduction in AFP secretion in Hep3B cells xenografted Balb/C mouse serum at 1 mg/kg, po administered 3 weeks after xenograft measured 21 days after treatment by ELISA; format: functional, organism-based; conditions: Hep 3B2
[6] = target: Aspartate aminotransferase, cytoplasmic (Homo sapiens) (UniProt P17174); experiment: Inhibition of aspartate aminotransferase (unknown origin) at 4 mM using 5.55 mM L-aspartate as substrate
Sequence of Aspartate aminotransferase, cytoplasmic (Homo sapiens) (P17174 whole entry): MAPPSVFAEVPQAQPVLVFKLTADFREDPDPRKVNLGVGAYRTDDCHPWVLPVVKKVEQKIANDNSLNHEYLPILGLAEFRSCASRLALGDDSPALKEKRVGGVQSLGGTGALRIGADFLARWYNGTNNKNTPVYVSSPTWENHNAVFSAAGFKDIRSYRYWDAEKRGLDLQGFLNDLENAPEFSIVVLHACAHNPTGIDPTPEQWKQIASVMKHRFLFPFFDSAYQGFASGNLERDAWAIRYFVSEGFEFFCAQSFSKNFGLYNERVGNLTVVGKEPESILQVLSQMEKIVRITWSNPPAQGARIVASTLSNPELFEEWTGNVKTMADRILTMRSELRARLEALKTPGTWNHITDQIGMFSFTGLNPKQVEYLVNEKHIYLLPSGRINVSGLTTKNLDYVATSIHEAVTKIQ

Mus musculus [7] = experiment: Reduction in AFP secretion in Hep3B cells xenografted Balb/C mouse serum at 0.1 mg/kg, po administered 3 weeks after xenograft measured 14 days after treatment by ELISA (reference value: 29155 pg/ml); format: functional, Hep 3B2
Mus musculus [8] = experiment: Reduction in AFP secretion in Hep3B cells xenografted Balb/C mouse serum at 0.1 mg/kg, po administered 3 weeks after xenograft measured 21 days after treatment by ELISA; format: functional, organism-based; conditions: Hep 3B2
[9] = Antitumor activity against human Hep3B cells xenografted in Balb/C mouse assessed as tumor size at 1 mg/kg, po administered 3 weeks after xenograft measured 28 days after treatment (reference value: 24.2); format: functional, Hep 3B2
[10] = Antitumor activity against human Hep3B cells xenografted in Balb/C mouse assessed as tumor size at 0.1 mg/kg, po administered 3 weeks after xenograft measured 28 days after treatment (reference value: 24.2); format: functional, Hep 3B2
Homo sapiens = species: Homo sapiens; experiment: Inhibition of alanine aminotransferase (unknown origin) at 4 mM using 5.55 mM L-alanine as substrate
[11] = Antiproliferative activity against human Hep3B cells after 48 hrs by [3H]-thymidine incorporation assay; format: functional, Hep 3B2
Hep 3B2 [12] = experiment: Effect AFP secretion in human Hep3B cells by ELISA; format: functional, cell-based
HepG2 [13] = experiment: Effect AFP secretion in human HepG2 cells by ELISA; format: functional, cell-based
Hepa1-6 = experiment: Effect AFP secretion in […] cells by ELISA; format: functional, cell-based
Mus musculus [14] = experiment: Reduction in AFP secretion in Hep3B cells xenografted Balb/C mouse serum at 500 ug/kg, ip administered as single dose by ELISA; format: functional, organism-based; conditions: Hep 3B2
[15] = Antiproliferative activity against […] cells after 48 hrs by [3H]-thymidine incorporation assay; format: functional

Question: For N[C@H]1C[C@@H](C(=O)O)CC1=C(C(F)(F)F)C(F)(F)F, which Activity (Mus musculus [1]) is on record?
Answer: 24857 pg/mL

Question: And the inhibition (Hep 3B2 [2])?
Answer: Active

Question: And the inhibition (HepG2 [3])?
Answer: Active

Question: And the Ki [4]?
Answer: 4.2 µM

Question: What about the inhibition (Mus musculus [5]) of the same molecule?
Answer: Active

Question: What about the inhibition [6] of the same molecule?
Answer: inactive

Question: And the Activity (Mus musculus [7])?
Answer: 24857 pg/mL

Question: What about the inhibition (Mus musculus [8]) of the same molecule?
Answer: Active

Question: What about the “fold change (FC)” value [9] of the same molecule?
Answer: 3.1

Question: And the “fold change (FC)” value [10]?
Answer: 4.5

Question: What about the inhibition (Homo sapiens) of the same molecule?
Answer: inactive

Question: Which Ki [4] does the source give for NC1C=CC=C(C(=O)O)C1 (stereo not drawn) [GABACULINE] here?
Answer: 2.1 µM

Question: What does the source list for N[C@H]1C=C(C(=O)O)CCC1 [GABACULINE]?
Answer: inhibition (INH) [11]: 43%; Activity (Hep 3B2 [12]): inactive; Activity (HepG2 [13]): inactive; Activity (Hepa1-6): inactive; inhibition (Mus musculus [14]): Active; inhibition (INH) [15]: 43%
